From article PMC12002130, “Proteorhodopsin insights into the molecular mechanism of vectorial proton transport” (Science Advances, 2025) come the findings set out here.

Series [1] has as its target T1, MAR-Arf1L8K,Q71L chimera (Candidatus Actinomarina minuta, UniProt S5DM51).
T1 construct: MAR fused to bovine Arf1 (L8K, Q71L) as crystallisation spacer on the cytoplasmic side; C-terminal GSGGSHHHHHH tag; expressed in E. coli C41(DE3); retinal site wholly in MAR
Put plainly: X-ray crystallography, cryotrapped N state. It is filed as binding. The conditions noted are these: covalent; photoisomer formed in situ by 532-nm light; pH 7.0; 2.3 A; isomer not assignable from density alone.

The target of series [2] is T1, MAR-Arf1L8K,Q71L chimera. Put plainly: X-ray crystallography. It counts as binding. Conditions: covalent; Schiff base to Lys200 of MAR; dark (ground) state, pH 7.0; all-trans form taken from MAR ground state.
In a further series the target is Asp72 (position 72, …). The experiment in a line: UV-vis. Conditions: dark (ground) state, solubilized MAR with all-trans retinal.

T1 sequence (P84080 2-181 L8K/Q71L, one chain of several, further chain): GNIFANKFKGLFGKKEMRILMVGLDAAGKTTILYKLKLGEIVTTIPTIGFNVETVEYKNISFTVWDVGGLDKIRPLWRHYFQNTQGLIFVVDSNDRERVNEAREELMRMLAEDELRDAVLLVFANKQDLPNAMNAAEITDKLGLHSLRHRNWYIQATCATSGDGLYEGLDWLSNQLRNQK

On to `CC1=C(/C=C/C(C)=C/C=C/C(C)=C\C=O)C(C)(C)CCC1` [13-cis,15-anti retinal], for which, at MAR-Arf1L8K,Q71L chimera [1], the “X-ray crystallography, cryotrapped N state” value is listed as “the retinal conformation in the N state represents the 13-cis,15-anti form”.

In the case of `CC1=C(/C=C/C(C)=C/C=C/C(C)=C/C=O)C(C)(C)CCC1` [all-trans retinal], the X-ray crystallography entry at MAR-Arf1L8K,Q71L chimera [2] was “The conformation of the MAR molecule is similar to that in the ground state”.

B1: MAR (marine actinobacterial rhodopsin, MacR), a proteorhodopsin (Candidatus Actinomarina minuta) (protein)
chain: MEELTYRLFMVATVGMLAGTVFLLASSREVKPEHRRGVYISALVCGIAWYHYQKMGASWESGSYDTGLRYVDWVLTVPLMFVEVLAVTRKGAAYNEAVRNWGIAATVMIGAGYYGETSAAGSNEYWTGFVIAMATYVWLMRNLQAEGEGLKGDQAVAFENIKNLILVGWIIYPLGYIAPVVGDFDAIREVLYTIADIINKVGLGVLVLQMARVQSGEKVSPGGGSHHHHHH
For orientation: pKa means the negative logarithm of the acid dissociation constant. Higher therefore signals a weaker acid or stronger base. The molecule B1 showed a pKa in the series with Asp72 (position 72, …) of approximately 7.4.
